The values below come from US11780826B2 (Amgen Inc., priority 2017, dated 2023).

For this test, the system named is Bovine cardiac myofibrils. As to the kind of experiment: In vitro model of dose-dependent myofibril ATPase modulation (AC1.4, pyruvate kinase/lactate dehydrogenase-coupled ATPase assay at pCa25). In kind it is biochemical. The note with it: concentration at which ATPase activity was 1.4-fold higher than the bottom of the dose curve, mean of a minimum of two independent tests. The gist of the method: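 We measure calcium-buffered ATPase activity of detergent-skinned bovine cardiac myofibrils at pH 6.80 and 22° C with 1 mM ATP, using a PK/LDH-coupled NADH readout at 340 nm. Values come from four-parameter dose-response fits, averaged over at least two independent runs.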
For the compound `Cc1cncc(C(=O)N2[C@@H](C(=O)N[C@@H](c3cc(F)c(Cl)cc3F)C3COC3)C[C@H]3C[C@H]32)c1` [Example 695, (1R,3R,5R)-N-((R)-(4-chloro-2,5-difluorophenyl)(3-oxetanyl)methyl)-2-((5-methyl-3-pyridinyl)carbonyl)-2-azabicyclo[3.1.0]hexane-3-carboxamide], the AC1.4 was determined as 5.5132 µM.
As to `C[C@H](C(=O)N[C@H](C)c1ccc(C(F)(F)F)cc1F)N(C)C(=O)[C@@H]1CN(S(=O)(=O)N2CC(C#N)C2)CCO1` [Example 299, (2S)-4-((3-cyano-1-azetidinyl)sulfonyl)-N-((2R)-1-(((1R)-1-(2-fluoro-4-(trifluoromethyl)phenyl)ethyl)amino)-1-oxo-2-propanyl)-N-methyl-2-morpholinecarboxamide], the AC1.4 was 0.7923 µM.
Take `CS(=O)(=O)c1cncc(C(=O)N2CCC[C@@H]2C(=O)N[C@@H](c2ccc(C(F)(F)F)cc2F)C2CC2)c1` [Example 662, N-((R)-cyclopropyl(2-fluoro-4-(trifluoromethyl)phenyl)methyl)-1-((5-(methylsulfonyl)-3-pyridinyl)carbonyl)-D-prolinamide]: the AC1.4 is 4.4365 µM.
On to `N#CC1CN(S(=O)(=O)c2cccc(C(=O)N3CCC[C@@H]3C(=O)NCc3cccc(Cl)c3)c2)C1` [Example 190, N-(3-chlorobenzyl)-1-((3-((3-cyano-1-azetidinyl)sulfonyl)phenyl)carbonyl)-D-prolinamide], for which the AC1.4 is 0.3569 µM.
With `O=C(N[C@@H](c1cc(F)c(Cl)cc1F)C1CC1)[C@H]1C[C@H]2C[C@H]2N1C(=O)c1cccc(C(F)(F)F)c1` [Example 127, (1R,3R,5R)-N-((R)-(4-chloro-2,5-difluorophenyl)(cyclopropyl)methyl)-2-(3-(trifluoromethyl)benzoyl)-2-azabicyclo[3.1.0]hexane-3-carboxamide] the figure was 0.2088 µM.
With `N#CC1CN(S(=O)(=O)N2CCC[C@H](C(=O)N3CCC[C@@H]3C(=O)NC(c3ccc(Cl)cc3)C3CCCO3)C2)C1` (stereo partly drawn) [Example 132, N-(-(4-chlorophenyl)(-tetrahydro-2-furanyl)methyl)-1-(((3S)-1-((3-cyano-1-azetidinyl)sulfonyl)-3-piperidinyl)carbonyl)-D-prolinamide] the figure was 0.2176 µM; with `O=C(NCc1ccc(C(F)(F)F)cc1F)[C@H]1CCCN1C(=O)[C@H]1CCCN(S(=O)(=O)N2CC(O)(C(F)F)C2)C1` [Example 296, 1-(((3S)-1-((3-(difluoromethyl)-3-hydroxy-1-azetidinyl)sulfonyl)-3-piperidinyl)carbonyl)-N-(2-fluoro-4-(trifluoromethyl)benzyl)-D-prolinamide], 0.7679 µM; with `N#Cc1ccc(CNC(=O)[C@H]2CCCN2C(=O)[C@H]2CCCN(S(=O)(=O)N3CC(C#N)C3)C2)cc1` [Example 551, 1-(((3S)-1-((3-cyano-1-azetidinyl)sulfonyl)-3-piperidinyl)carbonyl)-N-(4-cyanobenzyl)-D-prolinamide], 2.8435 µM.
Take `CC[C@@H](NC(=O)[C@H]1CCCN1C(=O)[C@H]1CCCN(S(=O)(=O)N2CC(C#N)C2)C1)c1cc(F)cc(F)c1` [Example 245, 1-(((3S)-1-((3-cyano-1-azetidinyl)sulfonyl)-3-piperidinyl)carbonyl)-N-((1R)-1-(3,5-difluorophenyl)propyl)-D-prolinamide]: the AC1.4 turned out to be 0.582 µM.
As to `N#CC1CN(S(=O)(=O)c2cccc(C(=O)N3CCC[C@@H]3C(=O)N[C@H](CC3CC3)c3ccc(C(F)(F)F)cc3)c2)C1` [Example 1, 1-(3-((3-cyano-1-azetidinyl)sulfonyl)benzoyl)-N-((1R)-2-cyclopropyl-1-(4-(trifluoromethyl)phenyl)ethyl)-D-prolinamide], the AC1.4 is 0.01405 µM.
With `N#CC1CN(S(=O)(=O)N2CCC[C@H](C(=O)N3CCC[C@@H]3C(=O)NC3Cc4ccccc43)C2)C1` (stereo partly drawn) [Example 705, (2R)-N-(bicyclo[4.2.0]octa-1 (6),2,4-trien-7-yl)-1-((S)-1-((3-cyanoazetidin-1-yl)sulfonyl)piperidine-3-carbonyl)pyrrolidine-2-carboxamide] the figure was 5.7373 µM; with `CS(=O)(=O)c1cc(C(=O)N2CCCC[C@@H]2C(=O)N[C@@H](c2cc(F)c(Cl)cc2F)C2CC2)ccn1` [Example 318, (2R)-N-((R)-(4-chloro-2,5-difluorophenyl)(cyclopropyl)methyl)-1-((2-(methylsulfonyl)-4-pyridinyl)carbonyl)-2-piperidinecarboxamide], 0.8652 µM.
`C[C@@H](NC(=O)[C@H]1CCCN1C(=O)c1cccc(S(=O)(=O)N2CC(C#N)C2)c1)c1ccccc1` [Example 785, 1-((3-((3-cyano-1-azetidinyl)sulfonyl)phenyl)carbonyl)-N-((1R)-1-phenylethyl)-D-prolinamide]: the AC1.4 stood at 8.8883 µM.
In turn, `CS(=O)(=O)c1cncc(C(=O)N2C[C@@H](F)C[C@@H]2C(=O)N[C@@H](c2cc(F)c(Cl)cc2F)C2CC2)c1` [Example 488, (4S)-N-((R)-(4-chloro-2,5-difluorophenyl)(cyclopropyl)methyl)-4-fluoro-1-((5-(methylsulfonyl)-3-pyridinyl)carbonyl)-D-prolinamide] had an AC1.4 of 2.1245 µM.
The compound `CC[C@H](NC(=O)[C@H]1CCCN1C(=O)c1cccc(S(=O)(=O)N2CC(C#N)C2)c1)c1ccc(C(F)(F)F)cc1` [Example 85, 1-(3-((3-cyano-1-azetidinyl)sulfonyl)benzoyl)-N-((1S)-1-(4-(trifluoromethyl)phenyl)propyl)-D-prolinamide] showed an AC1.4 of 0.1157 µM.
With `N#CC1CN(S(=O)(=O)c2cccc(C(=O)N3C[C@H](O)C[C@@H]3C(=O)NCc3ccc(C(F)(F)F)cc3)c2)C1` [Example 126, (4R)-1-((3-((3-cyano-1-azetidinyl)sulfonyl)phenyl)carbonyl)-4-hydroxy-N-(4-(trifluoromethyl)benzyl)-D-prolinamide] the figure was 0.2062 µM; with `CS(=O)(=O)c1cccc(C(=O)N2[C@@H](C(=O)N[C@@H](c3ccc(C(F)(F)F)cc3F)C3CCC3)C[C@H]3C[C@H]32)c1` [Example 161, (1R,3R,5R)-N-((R)-cyclobutyl(2-fluoro-4-(trifluoromethyl)phenyl)methyl)-2-(3-(methylsulfonyl)benzoyl)-2-azabicyclo[3.1.0]hexane-3-carboxamide], 0.2746 µM; with `C[C@@H](NC(=O)[C@H]1CC(F)(F)CN1C(=O)c1cccc(S(=O)(=O)N2CC(C#N)C2)c1)c1ccc(C(F)(F)F)cc1` [Example 6, 1-((3-((3-cyano-1-azetidinyl)sulfonyl)phenyl)carbonyl)-4,4-difluoro-N-((1R)-1-(4-(trifluoromethyl)phenyl)ethyl)-D-prolinamide], 0.0171 µM.
With `CS(=O)(=O)c1ccnc(C(=O)N2[C@@H](C(=O)N[C@@H](c3cc(F)c(Cl)cc3F)C3CC3)C[C@H]3C[C@H]32)c1` [Example 202, (1R,3R,5R)-N-((R)-(4-chloro-2,5-difluorophenyl)(cyclopropyl)methyl)-2-((4-(methylsulfonyl)-2-pyridinyl)carbonyl)-2-azabicyclo[3.1.0]hexane-3-carboxamide] the figure was 0.4116 µM; with `Cc1cc(C(=O)N2[C@@H](C(=O)N[C@@H](c3cc(F)c(Cl)cc3F)C3COC3)C[C@H]3C[C@H]32)cc(S(C)(=O)=O)c1` [Example 140, (1R,3R,5R)-N-((R)-(4-chloro-2,5-difluorophenyl)(3-oxetanyl)methyl)-2-(3-methyl-5-(methylsulfonyl)benzoyl)-2-azabicyclo[3.1.0]hexane-3-carboxamide], 0.2351 µM; with `N#CC1CN(S(=O)(=O)c2cccc(C(=O)N3CCC[C@@H]3C(=O)N[C@H](CO)c3ccc(Cl)cc3)c2)C1` [Example 57, N-((1S)-1-(4-chlorophenyl)-2-hydroxyethyl)-1-(3-((3-cyano-1-azetidinyl)sulfonyl)benzoyl)-D-prolinamide], 0.06485 µM.
With `N#CC1CN(S(=O)(=O)c2cccc(C(=O)N3CCC[C@@H]3C(=O)N[C@H](c3ccc(C(F)(F)F)cc3)C3CC3)c2)C1` [Example 37, 1-(3-((3-cyano-1-azetidinyl)sulfonyl)benzoyl)-N-((S)-cyclopropyl(4-(trifluoromethyl)phenyl)methyl)-D-prolinamide] the figure was 0.0383 µM.
`O=C(N[C@@H](c1ccc(C(F)(F)F)cc1F)C1CC1)[C@H]1CCCN1C(=O)c1cccc(-c2cn[nH]c2)c1` [Example 737, N-((R)-cyclopropyl(2-fluoro-4-(trifluoromethyl)phenyl)methyl)-1-(3-(1H-pyrazol-4-yl)benzoyl)-D-prolinamide] yielded an AC1.4 of 7.053 µM.
In the case of `Cc1c(F)cccc1CNC(=O)[C@H]1CCCN1C(=O)[C@H]1CCCN(S(=O)(=O)N2CC(C#N)C2)C1` [Example 288] it was 0.7452 µM; in that of `N#CC1CN(S(=O)(=O)N2CCC[C@H](C(=O)N3C[C@@H](O)C[C@@H]3C(=O)NCc3ccc(C(F)(F)F)cc3)C2)C1` [Example 581, (4S)-1-(((3S)-1-((3-cyano-1-azetidinyl)sulfonyl)-3-piperidinyl)carbonyl)-4-hydroxy-N-(4-(trifluoromethyl)benzyl)-D-prolinamide], 3.364 µM; in that of `N#CC1CN(S(=O)(=O)N2CCC[C@H](C(=O)N3CCC[C@@H]3C(=O)NC(CO)c3ccc(C(F)(F)F)cc3)C2)C1` (stereo partly drawn) [Example 134, 1-(((3S)-1-((3-cyano-1-azetidinyl)sulfonyl)-piperidinyl)carbonyl)-N-(-2-hydroxy-1-(4-(trifluoromethyl)phenyl)ethyl)-D-prolinamide], 0.2198 µM.
With `O=C(NCc1ccc(Cl)c(F)c1)[C@H]1CCCN1C(=O)c1cccc(S(=O)(=O)N2CC(F)(F)C2)c1` [Example 238, N-(4-chloro-3-fluorobenzyl)-1-(3-((3,3-difluoro-1-azetidinyl)sulfonyl)benzoyl)-D-prolinamide] the figure was 0.5606 µM.
